From ChEMBL document CHEMBL3414482, “Structure-activity relationship of pyrrolyl diketo acid derivatives as dual inhibitors of HIV-1 integrase and reverse transcriptase ribonuclease H domain” (J Med Chem, 2015)

What follows are molecules tested against Human immunodeficiency virus type 1 reverse transcriptase (Human immunodeficiency virus 1, UniProt Q72547).

Going from `CCOC(=O)/C(O)=C/C(=O)/C=C/c1cn(Cc2ccc(F)cc2)cc1-c1ccccc1` to `CCOC(=O)/C(N)=C/C(=O)c1cn(Cc2ccc(F)cc2)cc1-c1ccccc1`, the IC50 rises from 3 µM to 72 µM (24-fold).

`CCOC(=O)/C(O)=C/C(=O)/C=C/c1cc(C(=O)c2ccc(F)cc2)cn1C` and `Cn1cc(C(=O)c2ccc(F)cc2)cc1/C=C/C(=O)/C=C(\O)C(=O)O` are within 1.5-fold of each other in IC50: 28 µM for the first, 20 µM for the second.

Going from `C/C(C(=O)c1cn(Cc2ccc(F)cc2)cc1-c1ccccc1)=C(/O)C(=O)O` to `N/C(=C\C(=O)c1cn(Cc2ccc(F)cc2)cc1-c1ccccc1)C(=O)O` (mixture of isomers), the IC50 falls from 64 µM to 2 µM (32-fold).

`O=C(/C=C(\O)C(=O)O)/C=C/c1cc(C(=O)c2ccc(F)cc2)cn1Cc1ccccc1` showed an IC50 of 7.5 µM.
